Assay results taken from publication PMC3312789 (Journal of Immunology (Baltimore, Md. : 1950), 2008).
Where no end group is shown, it is not given here.

Experiments:
Assay in all cases: In vitro HLA-DR peptide binding assay
HLA DRB1*0101 = HLA DRB1*0101 (Homo sapiens, UniProt P01903+P01911, A100R/D57E/F55L/F60I/F76Y/I96L/L162R/M171V/P40L/Q125E/R42F/V115G/Y59C)
HLA DRB1*0301 = HLA DRB1*0301 (Homo sapiens, UniProt P01903+P01911, A100K/A102G/A103R/A169T/F55Y/I96L/K41T/L162R/M171V/P40S/Q125H/Q178H/Q39Y/R42S/S66N/T106N/T262R/W38E/Y61H)
HLA DRB1*0401 = HLA DRB1*0401 (Homo sapiens, UniProt P01903+P01911, A100K/A169T/F76Y/I96L/K127E/L162R/M171V/N62H/P40V/Q125Y/R42H/S133A/S149N/S66Y/V115G/V209L/W38E)
HLA DRB1*0404 = HLA DRB1*0404 (Homo sapiens, UniProt P01903+P01911, A100R/A169T/F76Y/I96L/K127E/L162R/M171V/N62H/P40V/Q125Y/R42H/S133A/S149N/S66Y/V209L/W38E)
HLA DRB1*0405 = HLA DRB1*0405 (Homo sapiens, UniProt P01903+P01911, A100R/A169T/D86S/F76Y/I96L/K127E/L162R/M171V/N62H/P40V/Q125Y/R42H/S133A/S149N/S66Y/V115G/V209L/W38E)
HLA DRB1*0701 = HLA DRB1*0701 (Homo sapiens, UniProt P01903+P01911, A100R/A102G/A103Q/D57E/D86V/E43K/F76Y/K127E/L162R/M171V/P40G/Q125H/Q99D/R33Q/R42Y/R54Q/S133A/S66F/T210M/V115G/Y107V/Y59L/Y89S)
HLA DRB1*1101 = HLA DRB1*1101 (Homo sapiens, UniProt P01903+P01911, A100R/A169T/A87E/I96F/K41T/L162R/M171V/P40S/Q125H/Q178H/Q39Y/Q99D/R42S/S66Y/T262R/V115G/W38E)
HLA DRB1*1302 = HLA DRB1*1302 (Homo sapiens, UniProt P01903+P01911, A100E/A169T/K41T/L162R/M171V/P40S/Q125H/Q178H/Q39Y/Q99D/R42S/S66N/T262R/V115G/W38E/Y61H)
HLA DRB1*1501 = HLA DRB1*1501 (Homo sapiens, UniProt P01903+P01911)
HLA DRB3*0101 = HLA DRB3*0101 (Homo sapiens, UniProt P01903+P79483)

HLA DRB1*0301, sequence (P01903 26-254 limits assumed, other chains not shown): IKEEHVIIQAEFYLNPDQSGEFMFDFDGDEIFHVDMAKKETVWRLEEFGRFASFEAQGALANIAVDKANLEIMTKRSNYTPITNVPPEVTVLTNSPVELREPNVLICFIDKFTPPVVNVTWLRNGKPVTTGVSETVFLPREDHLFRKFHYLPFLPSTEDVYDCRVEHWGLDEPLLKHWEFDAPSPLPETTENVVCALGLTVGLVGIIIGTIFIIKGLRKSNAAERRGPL
HLA DRB1*1302, sequence (P01903 26-254 limits assumed, other chains not shown): as above
HLA DRB1*1101, sequence (P01903 26-254 limits assumed, other chains not shown): as above

Molecule	IC50 (HLA DRB1*0101)	IC50 (HLA DRB1*0301)	IC50 (HLA DRB1*0401)	IC50 (HLA DRB1*0404)	IC50 (HLA DRB1*0405)	IC50 (HLA DRB1*0701)	IC50 (HLA DRB1*1101)	IC50 (HLA DRB1*1302)	IC50 (HLA DRB1*1501)	IC50 (HLA DRB3*0101)
AYQQGVTVDSIG [24.2]	0.471 µM	> 5 µM	0.212 µM	> 5 µM	> 5 µM	2.72 µM	> 5 µM	> 5 µM	> 5 µM	> 5 µM
APAAPANPGLII [34.2]	1.27 µM	> 5 µM	> 5 µM	> 5 µM	> 5 µM	> 5 µM	> 5 µM	0.642 µM	> 5 µM	> 5 µM
DPEDSALLEDPA [30.7]	> 5 µM	> 5 µM	> 5 µM	> 5 µM	> 5 µM	> 5 µM	> 5 µM	> 5 µM	> 5 µM	1.62 µM
YQQGVTVDSIGM [24.3]	> 5 µM	> 5 µM	4.41 µM	> 5 µM	> 5 µM	0.389 µM	> 5 µM	> 5 µM	> 5 µM	> 5 µM
CC(C)C[C@H](NC(=O)[C@H](C)NC(=O)[C@H](CO)NC(=O)[C@H](CC(=O)O)NC(=O)[C@H](CCC(=O)O)NC(=O)[C@@H]1CCCN1)C(=O)N[C@@H](CC(C)C)C(=O)N[C@@H](CCC(=O)O)C(=O)N[C@@H](CC(=O)O)C(=O)N1CCC[C@H]1C(=O)N[C@@H](C)C(=O)NCC(=O)O [30.8]	> 5 µM	> 5 µM	> 5 µM	> 5 µM	> 5 µM	> 5 µM	> 5 µM	> 5 µM	> 5 µM	2.05 µM
HAPAAPANPGLI [34.1]	3.55 µM	> 5 µM	> 5 µM	> 5 µM	> 5 µM	> 5 µM	> 5 µM	> 5 µM	> 5 µM	> 5 µM
